Reference: US20090239846A1, “Novel Compounds” (Glaxo Group Limited, priority 2005, published 2009)
Structures can show the parent of a compound that is named as a salt. Where two headings read alike, the source gives them in different places.

Columns and labels:
Recombinant human p38α = target: T1, Recombinant human p38α (Homo sapiens, UniProt Q16539); experiment: Fluorescence anisotropy kinase binding assay (standard or low volume); conditions: for active in the assay (pIC50, p38α binding): 12 nM p38α, 5 nM fluorescent ligand
T1 construct: GST; made in house
T1 sequence (Q16539 whole entry): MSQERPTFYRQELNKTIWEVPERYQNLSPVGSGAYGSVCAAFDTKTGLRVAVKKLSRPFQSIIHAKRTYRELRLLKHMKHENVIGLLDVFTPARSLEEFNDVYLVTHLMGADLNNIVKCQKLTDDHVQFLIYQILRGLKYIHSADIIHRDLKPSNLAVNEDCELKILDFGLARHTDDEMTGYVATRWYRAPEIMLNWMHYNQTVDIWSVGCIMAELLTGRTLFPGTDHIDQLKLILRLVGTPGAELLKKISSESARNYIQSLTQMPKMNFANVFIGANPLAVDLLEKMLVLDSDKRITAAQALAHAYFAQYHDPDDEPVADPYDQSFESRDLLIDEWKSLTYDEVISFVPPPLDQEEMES
Outline: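 Activated GST-tagged recombinant human p38α (pre-activated with MBP-MKK6 DD) at 12 nM final with 5 nM rhodamine green-labelled pyridinylimidazole tracer in pH 7.5 HEPES/CHAPS/DTT/MgCl2 buffer. Test compound 0.28 nM–16.6 μM or 0.02 nM–25 μM final, 3% or 1.7% DMSO; 30–60 min at room temperature. Fluorescence anisotropy read (ex 485/em 535 nm) for Ki.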

TNFalpha = experiment: LPS-stimulated cytokine production in human whole blood; assay type: cell-based
Method: Assay: Test compound concentrations were prepared at 10× concentrations and LPS prepared at 1 ug/ml (final conc. of 50 ng/ml LPS) and added in 50 uL volumes to 1.5 mL eppendorf tubes. Heparinized human whole blood was obtained from healthy volunteers and was dispensed into eppendorf tubes or multiwell plates containing compounds and LPS in 0.2-0.4 mL volumes and the tubes incubated at 37 C. In some studies, compound was incubated with blood for up to 30 min prior to addition of LPS. Following a 4 hour incubation, the tubes or plates were centrifuged to remove cells and plasma was withdrawn and frozen at −80 C. Cytokine measurement: IL-1beta and/or TNFalpha were quantified using a standardized ELISA, or similar technology. Concentrations of IL-1beta or TNFalpha were determined from standard curves of the appropriate cytokine and IC50 values for test compound (concentration that inhibited 50% of LPS-stimulated cytokine production) were calculated by linear regression analysis.

[1] = tested on: IL-8 production by human neutrophils; experiment: TNF-stimulated IL-8 production from human neutrophils; assay type: cell-based; conditions: Neutrophil, bound, not more than 50% inhibition at 100 nM, read-out: IC50
Method: TNF-Stimulated IL-8 Production from Human Neutrophils The effect of test compounds on TNF-stimulated IL8 production by human neutrophils is measured as follows. Neutrophils are prepared from blood obtained from consenting donors, using standard methods. Blood is collected in heparinized syringes and layered over histopaque (30 ml/20 ml). Following centrifugation, the red cell pellet is resuspended in PBS and purified over a dextran gradient. Red blood cells are lysed with water for 40 sec, remaining granulocytes collected by centrifugation and resuspended at 1.5×10̂6 cells/ml. Cells are added (0.5-1 ml) to 48 well plates already containing compound at 1000×final concentration in neat DMSO or 10% DMSO in RPMI1640 with 10% FBS. TNF (final concentration 100 ng/ml) is used as the stimulus. Cells incubated for approximately 20 hrs at 37° C., 5% CO2. Levels of IL-8 in the cell free supernatant are determined by sandwich ELISA, and inhibition relative to a control with DMPO but no compound is calculated.

[2] = LPS-stimulated TNF-alpha, bound, read-out: IC50
[3] = second end given as 'less than', read-out: pIC50, broad range of data upon multiple runs (converted)
[4] = bound, read-out: apparent pIC50 (converted)

Structure (SMILES)	active in the assay (pIC50, p38α binding) (Recombinant human p38α)	IC50 (TNFalpha; [2]) [nM]	melting point	IC50 [1] [nM]	further results
CNC(=O)c1ccc(C)c(-c2nc(S(C)(=O)=O)nc3c2CNC(=O)N3c2c(F)cccc2F)c1 [163(b), 3-[8-(2,6-difluorophenyl)-2-(methylsulfonyl)-7-oxo-5,6,7,8-tetrahydropyrimido[4,5-d]pyrimidin-4-yl]-N,4-dimethylbenzamide]	active	> 1000	–	–	–
CCN(CC)C(=O)c1ccc(C)c(-c2nc(N(C)CCCN(C)C)nc3c2CNC(=O)N3c2c(F)cccc2F)c1 [Example 161, 3-{8-(2,6-difluorophenyl)-2-[[3-(dimethylamino)propyl](methyl)amino]-7-oxo-5,6,7,8-tetrahydropyrimido[4,5-d]pyrimidin-4-yl}-N,N-diethyl-4-methylbenzamide]	active	> 1000	106 to 108 °C	–	–
Cc1ccc(C(=O)N(C)C)cc1-c1nc(NC2CCN(C)CC2)nc2c1CNC(=O)N2c1c(F)cccc1F [Example 155, 3-{8-(2,6-difluorophenyl)-2-[(1-methyl-4-piperidinyl)amino]-7-oxo-5,6,7,8-tetrahydropyrimido[4,5-d]-pyrimidin-4-yl}N,N,4-trimethylbenzamide]	active	–	163 to 165 °C	> 100	–
CCc1ccc(C(=O)O)cc1-c1nc(NCCN(C)C)nc2c1CNC(=O)N2c1c(F)cccc1F [Example 141, 3-(8-(2,6-difluorophenyl)-2-{[2-(dimethylamino)ethyl]amino}-7-oxo-5,6,7,8-tetrahydropyrimido[4,5-d]pyrimidin-4-yl)-4-ethylbenzoic acid]	–	> 1000	–	–	IC50 (Recombinant human p38α; [3]): ≥ 1260 nM
Cc1ccc(C(=O)N(C)C)cc1-c1nc(N(C)CCCN(C)C)nc2c1CNC(=O)N2c1c(F)cccc1F [Example 154, 3-{8-(2,6-difluorophenyl)-2-[[3-(dimethylamino)propyl](methyl)amino]-7-oxo-5,6,7,8-tetrahydropyrimido[4,5-d]pyrimidin-4-yl}-N,N,4-trimethylbenzamide]	active	–	114 to 118 °C	> 100	–
Cc1ccc(C(=O)N(C)C)cc1-c1nc(N2CCN(C)CC2)nc2c1CNC(=O)N2c1c(F)cccc1F [149(c), 3-[8-(2,6-difluorophenyl)-2-(4-methyl-1-piperazinyl)-7-oxo-5,6,7,8-tetrahydropyrimido[4,5-d]pyrimidin-4-yl]-N,N,4-trimethylbenzamide]	active	–	159 to 162 °C	> 100	–
Cc1ccc(C(=O)NC(C)C)cc1-c1nc(N2CCOCC2)nc2c1CNC(=O)N2c1c(F)cccc1F [Example 68, 3-[8-(2,6-difluorophenyl)-2-(4-morpholinyl)-7-oxo-5,6,7,8-tetrahydropyrimido[4,5-d]pyrimidin-4-yl]-4-methyl-N-(1-methylethyl)benzamide trifluoroacetate]	–	> 1000	–	–	–
CCN(CC)C(=O)c1ccc(C)c(-c2nc(NCCNC(C)C)nc3c2CNC(=O)N3c2c(F)cccc2F)c1 [Example 160, 3-[8-(2,6-difluorophenyl)-2-({2-[(1-methylethyl)amino]ethyl}amino)-7-oxo-5,6,7,8-tetrahydropyrimido[4,5-d]pyrimidin-4-yl]-N,N-diethyl-4-methylbenzamide]	–	–	89 to 91 °C	> 100	IC50 (Recombinant human p38α; [4]): > 15800 nM
Cc1ccc(C(=O)NC[C@@H](C)O)cc1-c1nc(NCCN(C)C)nc2c1CNC(=O)N2c1c(F)cccc1F [Example 128, 3-(8-(2,6-difluorophenyl)-2-{[2-(dimethylamino)ethyl]amino}-7-oxo-5,6,7,8-tetrahydropyrimido[4,5-d]pyrimidin-4-yl)-N-[(2R)-2-hydroxypropyl]-4-methylbenzamide]	–	> 1000	–	–	–
Cc1ccc(C(=O)NC(C)C)cc1-c1nc(N2CCCCCC2)nc2c1CNC(=O)N2c1c(F)cccc1F [Example 66, 3-[8-(2,6-difluorophenyl)-2-(hexahydro-1H-azepin-1-yl)-7-oxo-5,6,7,8-tetrahydropyrimido[4,5-d]pyrimidin-4-yl]-4-methyl-N-(1-methylethyl)benzamide]	–	> 1000	–	–	–
Cc1ccc(C(=O)NC(C)C)cc1-c1nc(N2CCCC2)nc2c1CNC(=O)N2c1c(F)cccc1F [Example 67, 3-[8-(2,6-difluorophenyl)-7-oxo-2-(1-pyrrolidinyl)-5,6,7,8-tetrahydropyrimido[4,5-d]pyrimidin-4-yl]-4-methyl-N-(1-methylethyl)benzamide]	–	> 1000	–	–	–
CCN(CC)C(=O)c1ccc(C)c(-c2nc(N3CCN(C)CC3)nc3c2CNC(=O)N3c2c(F)cccc2F)c1 [Example 162, 3-[8-(2,6-difluorophenyl)-2-(4-methyl-1-piperazinyl)-7-oxo-5,6,7,8-tetrahydropyrimido[4,5-d]pyrimidin-4-yl]-N,N-diethyl-4-methylbenzamide]	–	> 1000	201 to 205 °C (dec.)	–	IC50 (Recombinant human p38α; [3]): ≥ 1260 nM
Cc1ccc(C(=O)NC[C@H](C)O)cc1-c1nc(NCCN(C)C)nc2c1CNC(=O)N2c1c(F)cccc1F [Example 129, 3-(8-(2,6-difluorophenyl)-2-{[2-(dimethylamino)ethyl]amino}-7-oxo-5,6,7,8-tetrahydropyrimido[4,5-d]pyrimidin-4-yl)-N-[(2S)-2-hydroxypropyl]-4-methylbenzamide]	–	> 1000	–	–	–
CCN(CC)C(=O)c1ccc(C)c(-c2nc(NCCN(C)C)nc3c2CNC(=O)N3c2c(F)cccc2F)c1 [156(c), 3-(8-(2,6-difluorophenyl)-2-{[2-(dimethylamino)ethyl]amino}-7-oxo-5,6,7,8-tetrahydropyrimido[4,5-d]pyrimidin-4-yl)-N,N-diethyl-4-methylbenzamide]	active	–	125 to 127 °C	> 100	–
CCc1ccc(C(=O)Nc2ccc(F)c(F)c2)cc1-c1nc(NCCN(C)C)nc2c1CNC(=O)N2c1c(F)cccc1F [Example 143, N-(3,4-difluorophenyl)-3-(8-(2,6-difluorophenyl)-2-{[2-(dimethylamino)-ethyl]amino}-7-oxo-5,6,7,8-tetrahydropyrimido[4,5-d]pyrimidin-4-yl)-4-ethylbenzamide trifluoroacetate]	–	> 1000	–	–	–
Cc1ccc(C(=O)Nc2cccc(S(N)(=O)=O)c2)cc1-c1nc(NCCN(C)C)nc2c1CNC(=O)N2c1c(F)cccc1F [Example 226, N-[3-(aminosulfonyl)phenyl]-3-(8-(2,6-difluorophenyl)-2-{[2-(dimethylamino)-ethyl]amino}-7-oxo-5,6,7,8-tetrahydropyrimido[4,5-d]pyrimidin-4-yl)-4-methylbenzamide]	–	> 1000	–	–	–
Cc1ccc(C(=O)N(C)C)cc1-c1nc(NCCNC(C)C)nc2c1CNC(=O)N2c1c(F)cccc1F [Example 153, 3-[8-(2,6-difluorophenyl)-2-({2-[(1-methylethyl)amino]ethyl}amino)-7-oxo-5,6,7,8-tetrahydropyrimido[4,5-d]pyrimidin-4-yl]-N,N,4-trimethylbenzamide]	–	–	130 to 133 °C	> 100	IC50 (Recombinant human p38α; [4]): > 15800 nM
Cc1c(F)cc(C(=O)NC(C)C)cc1-c1nc(NCCN(C)C)nc2c1CNC(=O)N2c1c(F)cccc1F [Example 111(c), 3-(8-(2,6-difluorophenyl)-2-{[2-(dimethylamino)ethyl]amino}-7-oxo-5,6,7,8-tetrahydropyrimido[4,5-d]pyrimidin-4-yl)-5-fluoro-4-methyl-N-(1-methylethyl)benzamide]	–	–	–	–	IC50 (TNFalpha; upper end printed as greater than 0.1 uM, read-out: IC50, range of data upon multiple runs): 40 to 100 nM
Cc1ccc(C(=O)NC(C)C)cc1-c1nc(N2CCC(n3c(=O)[nH]c4cc(Cl)ccc43)CC2)nc2c1CNC(=O)N2c1c(F)cccc1F [Example 73, 3-[2-[4-(5-chloro-2-oxo-2,3-dihydro-1H-benzimidazol-1-yl)-1-piperidinyl]-8-(2,6-difluorophenyl)-7-oxo-5,6,7,8-tetrahydropyrimido[4,5-d]pyrimidin-4-yl]-4-methyl-N-(1-methylethyl)benzamide trifluoroacetate]	–	> 1000	–	–	–
